Results published in PubChem BioAssay AID328 (DTP/NCI, 2004).
“And” between values parts separate entries of the source, which are not always exact repeats. Equal entries are not always repeated. Toxic doses and inconclusive results are not listed.

System: BDF1 mice, P388 leukemia ip, median survival T/C
Test: NCI In Vivo Anticancer Drug Screen. Data for tumor model P388 Leukemia (intraperitoneal) in B6D2F1 (BDF1) mice
Settings: endpoint: median survival time, higher = longer survival
How it was run: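 Vehicle-dosed animals serve as the reference; survival of compound-dosed, tumour-implanted mice is divided by it.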

[1] = dose: 25.0 mg/kg/injection, schedule: Q04DX003 (ip), vehicle: saline
[2] = dose: 50.0 mg/kg/injection, schedule: Q04DX003 (ip), vehicle: saline
[3] = dose: 100.0 mg/kg/injection, schedule: Q04DX003 (ip), vehicle: saline
[4] = dose: 200.0 mg/kg/injection, schedule: Q04DX003 (ip), vehicle: saline
[5] = dose: 400.0 mg/kg/injection, schedule: Q04DX003 (ip), vehicle: saline
[6] = dose: 50.0 mg/kg/injection, schedule: Q01DX009 (ip), vehicle: saline
[7] = dose: 100.0 mg/kg/injection, schedule: Q01DX009 (ip), vehicle: saline
[8] = dose: 200.0 mg/kg/injection, schedule: Q01DX009 (ip), vehicle: saline
[9] = dose: 100.0 mg/kg/injection, schedule: Q01DX009 (ip), vehicle: saline with Tween-80
[10] = dose: 100.0 mg/kg/injection, schedule: Q04DX003 (ip), vehicle: saline with Tween-80
[11] = dose: 200.0 mg/kg/injection, schedule: Q04DX003 (ip), vehicle: saline with Tween-80
[12] = dose: 400.0 mg/kg/injection, schedule: Q04DX003 (ip), vehicle: saline with Tween-80
[13] = dose: 200.0 mg/kg/injection, schedule: Q01DX009 (ip), vehicle: saline with Tween-80
[14] = dose: 50.0 mg/kg/injection, schedule: Q01DX009 (ip), vehicle: saline with Tween-80

Nc1ncnc2c1ncn2C1OC(CO)C(O)C1O (stereo unspecified)
T/C (dose: 1.56 mg/kg/injection, schedule: Q#A X018 (ip), vehicle: saline with Tween-80): 113 % of control
T/C (dose: 3.13 mg/kg/injection, schedule: Q#A X018 (ip), vehicle: saline with Tween-80): 100 % of control
T/C (dose: 6.25 mg/kg/injection, schedule: Q#A X018 (ip), vehicle: saline with Tween-80): 100 % of control
T/C (dose: 10.0 mg/kg/injection, schedule: Q01DX009 (ip), vehicle: saline with Tween-80): 105 % of control
T/C (dose: 12.5 mg/kg/injection, schedule: Q#A X018 (ip), vehicle: saline with Tween-80): 109 % of control
T/C (dose: 14.0 mg/kg/injection, schedule: Q01DX009 (ip), vehicle: saline): 120 % of control
T/C (dose: 20.0 mg/kg/injection, schedule: Q01DX009 (ip), vehicle: saline with Tween-80): 91 % of control and 100 % of control
T/C [1]: 109 % of control
T/C (dose: 40.0 mg/kg/injection, schedule: Q01DX009 (ip), vehicle: saline with Tween-80): 114 % of control and 122 % of control
T/C [2]: 113 % of control
T/C (dose: 78.0 mg/kg/injection, schedule: Q01DX009 (ip), vehicle: saline with Tween-80): 178 % of control
T/C (dose: 78.6 mg/kg/injection, schedule: Q01DX005 (ip), vehicle: water): 108 % of control
T/C (dose: 78.6 mg/kg/injection, schedule: Q01DX009 (ip), vehicle: water): 102 % of control
T/C [3]: 109 % of control
T/C (dose: 110.0 mg/kg/injection, schedule: Q03HX024 (ip), vehicle: saline with Tween-80): 184 % of control
T/C (dose: 118.0 mg/kg/injection, schedule: Q01DX005 (ip), vehicle: water): 114 % of control
T/C (dose: 118.0 mg/kg/injection, schedule: Q01DX009 (ip), vehicle: saline with Tween-80): 165 % of control
T/C (dose: 118.0 mg/kg/injection, schedule: Q01DX009 (ip), vehicle: water): 105 % of control
T/C (dose: 160.0 mg/kg/injection, schedule: Q01DX009 (ip), vehicle: saline with Tween-80): 151 % of control and 185 % of control
T/C (dose: 160.0 mg/kg/injection, schedule: Q03HX024 (ip), vehicle: saline with Tween-80): 206 % of control
T/C (dose: 177.0 mg/kg/injection, schedule: Q01DX005 (ip), vehicle: water): 111 % of control
T/C (dose: 177.0 mg/kg/injection, schedule: Q01DX009 (ip), vehicle: saline with Tween-80): 156 % of control and 169 % of control
T/C (dose: 177.0 mg/kg/injection, schedule: Q01DX009 (ip), vehicle: water): 112 % of control
T/C (dose: 240.0 mg/kg/injection, schedule: Q03HX024 (ip), vehicle: saline with Tween-80): 228 % of control
T/C (dose: 266.0 mg/kg/injection, schedule: Q01DX005 (ip), vehicle: water): 117 % of control
T/C (dose: 266.0 mg/kg/injection, schedule: Q01DX009 (ip), vehicle: saline with Tween-80): 156 % of control and 166 % of control
T/C (dose: 266.0 mg/kg/injection, schedule: Q01DX009 (ip), vehicle: water): 117 % of control
T/C (dose: 320.0 mg/kg/injection, schedule: Q01DX009 (ip), vehicle: saline with Tween-80): 185 % of control
T/C (dose: 400.0 mg/kg/injection, schedule: Q01DX005 (ip), vehicle: water): 117 % of control
T/C (dose: 400.0 mg/kg/injection, schedule: Q01DX009 (ip), vehicle: water): 114 % of control
T/C (dose: 900.0 mg/kg/injection, schedule: Q01DX009 (ip), vehicle: saline with Tween-80): 155 % of control and 156 % of control

CCCCOc1ccc(C(=O)N/N=C(\C)[C@]2(O)Cc3c(O)c4c(c(O)c3[C@@H](OC3CC(N)C(O)C(C)O3)C2)C(=O)c2c(OC)cccc2C4=O)cc1 (stereo partly specified)
T/C (dose: 1.0 mg/kg/injection, schedule: Q01DX009 (ip), vehicle: water): 173 % of control
T/C (dose: 2.0 mg/kg/injection, schedule: Q01DX009 (ip), vehicle: water): 157 % of control and 173 % of control
T/C (dose: 4.0 mg/kg/injection, schedule: Q01DX009 (ip), vehicle: water): 169 % of control

CN(C)c1nn2c(-c3ccccc3)nnc2o1
T/C [4]: 105 % of control
T/C [5]: 120 % of control

O=c1c(O)c(-c2ccc(O)c(O)c2)oc2cc(O)cc(O)c12
T/C (dose: 15.0 mg/kg/injection, schedule: Q01DX009 (ip), vehicle: saline): 118 % of control
T/C (dose: 25.0 mg/kg/injection, schedule: Q01DX009 (ip), vehicle: saline): 108 % of control
T/C (dose: 30.0 mg/kg/injection, schedule: Q01DX009 (ip), vehicle: saline): 109 % of control
T/C [6]: 97 % of control and 112 % of control
T/C [7]: 102 % of control and 117 % of control
T/C (dose: 125.0 mg/kg/injection, schedule: Q01DX009 (ip), vehicle: saline): 118 % of control
T/C [8]: 110 % of control
T/C (dose: 300.0 mg/kg/injection, schedule: Q01DX009 (ip), vehicle: saline): 97 % of control

c1ccc([C@H]2CN3CCSC3=N2)cc1
T/C (dose: 0.15 mg/kg/injection, schedule: Q01DX009 (ip), vehicle: saline): 100 % of control
T/C (dose: 0.31 mg/kg/injection, schedule: Q01DX009 (ip), vehicle: saline): 100 % of control
T/C (dose: 0.63 mg/kg/injection, schedule: Q01DX009 (ip), vehicle: saline): 100 % of control and 122 % of control
T/C (dose: 1.25 mg/kg/injection, schedule: Q01DX009 (ip), vehicle: saline): 97 % of control and 104 % of control
T/C (dose: 2.5 mg/kg/injection, schedule: Q01DX009 (ip), vehicle: saline): 99 % of control and 104 % of control
T/C (dose: 5.0 mg/kg/injection, schedule: Q01DX009 (ip), vehicle: saline): 100 % of control
T/C (dose: 10.0 mg/kg/injection, schedule: Q01DX009 (ip), vehicle: saline): 94 % of control and 100 % of control
T/C (dose: 20.0 mg/kg/injection, schedule: Q01DX009 (ip), vehicle: saline): 94 % of control and 100 % of control

COC(=O)C1(C)CSCCC1=O (stereo unspecified)
T/C [7]: 105 % of control
T/C [3]: 100 % of control
T/C [8]: 105 % of control
T/C [4]: 100 % of control
T/C (dose: 400.0 mg/kg/injection, schedule: Q01DX009 (ip), vehicle: saline): 95 % of control
T/C [5]: 95 % of control

COC1CC(N=[N+]=[N-])C(OC(=O)c2ccccc2)C(C)O1 (stereo unspecified)
T/C [9]: 94 % of control
T/C [10]: 101 % of control
T/C [11]: 106 % of control
T/C [12]: 106 % of control

O=C(Nc1cccc(S(=O)(=O)F)c1)c1ccc(COc2ccc([N+](=O)[O-])cc2Cl)cc1
T/C [9]: 91 % of control
T/C [13]: 91 % of control

CC(C)=CCC/C(C)=C/CNc1ncnc2nc[nH]c12
T/C [10]: 100 % of control
T/C [11]: 90 % of control
T/C [12]: 109 % of control and 111 % of control

NC(=S)Nc1cccc(Cl)c1
T/C (dose: 25.0 mg/kg/injection, schedule: Q04DX003 (ip), vehicle: Klucel (hydroxypropylcellulose) (HPC)): 118 % of control
T/C (dose: 50.0 mg/kg/injection, schedule: Q04DX003 (ip), vehicle: Klucel (hydroxypropylcellulose) (HPC)): 104 % of control
T/C (dose: 100.0 mg/kg/injection, schedule: Q04DX003 (ip), vehicle: Klucel (hydroxypropylcellulose) (HPC)): 104 % of control

Cc1ccc(Nc2ccc(Nc3ccc(C)cc3)c3c2C(=O)c2ccccc2C3=O)cc1
T/C [14]: 90 % of control
T/C [9]: 86 % of control
T/C [10]: 88 % of control
T/C [13]: 90 % of control
T/C [11]: 100 % of control

c1ccc(C[n+]2ccc(-c3cc[n+](Cc4ccccc4)cc3)cc2)cc1
T/C (dose: 1.25 mg/kg/injection, schedule: Q01DX010 (ip), vehicle: saline): 86 % of control
T/C (dose: 156.0 micrograms/kg/injection, schedule: Q01DX010 (ip), vehicle: saline): 104 % of control
T/C (dose: 313.0 micrograms/kg/injection, schedule: Q01DX010 (ip), vehicle: saline): 104 % of control
T/C (dose: 625.0 micrograms/kg/injection, schedule: Q01DX010 (ip), vehicle: saline): 104 % of control

Nc1nc(=S)c2ncn(C3OC(COC(=O)c4ccc(Cl)cc4)C(OC(=O)c4ccc(Cl)cc4)C3OC(=O)c3ccc(Cl)cc3)c2[nH]1 (stereo unspecified)
T/C (dose: 132.0 mg/kg/injection, schedule: Q04DX003 (ip), vehicle: saline with Tween-80): 118 % of control
T/C [13]: 100 % of control
T/C (dose: 300.0 mg/kg/injection, schedule: Q04DX003 (ip), vehicle: saline with Tween-80): 122 % of control

CCCCC[C@@H](CN(C)C)[C@H](O)/C=C/c1ccc(Cl)cc1
T/C (dose: 50.0 mg/kg/injection, schedule: Q01DX009 (ip), vehicle: Klucel (hydroxypropylcellulose) (HPC)): 96 % of control

CC(N)COCc1ccccc1 (stereo unspecified)
T/C [1]: 104 % of control
T/C [2]: 95 % of control

Cc1ccccc1OS(=O)(=O)C(F)(F)C(F)(F)C(F)(F)C(F)(F)F
T/C [6]: 100 % of control
T/C [7]: 100 % of control
T/C [8]: 106 % of control

CC1(C)CC(=O)C(C(c2cccc(O)c2O)C2C(=O)CC(C)(C)CC2=O)C(=O)C1
T/C [14]: 123 % of control
T/C [9]: 100 % of control
T/C [13]: 91 % of control
